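Method: 48-hour compound exposure of cells in 96-well plates, five concentrations, linear interpolation of endpoints. At the GI50, growth is halved.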 Activity calls are given as the source filed them. Rule as the data show it: active = GI50 up to about 1.1 µM and inactive = higher.
Experiments:
Assay in all cases: NCI anticancer screen, dose series, 48 h
COLO 205 = system: COLO 205
M14 = system: M14
HCC 2998 = system: HCC 2998
MDA-MB-231 = system: MDA-MB-231
IGROV-1 = system: IGROV-1
BT-549 = system: BT-549
HOP-92 = system: HOP-92
NCI-H522 = system: NCI-H522
Malme-3M = system: Malme-3M
SF-295 = system: SF-295
SN12C = system: SN12C
OVCAR-3 = system: OVCAR-3
RPMI-8226 = system: RPMI-8226
NCI/ADR-RES = system: NCI/ADR-RES
MCF7 = system: MCF7
KM12 = system: KM12
SF-268 = system: SF-268
DU-145 = system: DU-145
UO-31 = system: UO-31
HCT-116 = system: HCT-116

Structure (SMILES) | GI50 (COLO 205) | GI50 (M14) | GI50 (HCC 2998) | GI50 (MDA-MB-231) | GI50 (IGROV-1) | GI50 (BT-549) | GI50 (HOP-92) | GI50 (NCI-H522) | GI50 (Malme-3M) | GI50 (SF-295) | GI50 (SN12C) | GI50 (OVCAR-3) | GI50 (RPMI-8226) | GI50 (NCI/ADR-RES) | GI50 (MCF7) | GI50 (KM12) | GI50 (SF-268) | GI50 (DU-145) | GI50 (UO-31) | GI50 (HCT-116)
N=C(N)NC(=N)Nc1ccc(S(=O)(=O)O)cc1 | > 100 µM (inactive) | > 100 µM (inactive) | > 100 µM (inactive) | > 100 µM (inactive) | > 100 µM (inactive) | > 100 µM (inactive) | 77.8 µM (inactive) | > 100 µM (inactive) | > 100 µM (inactive) | > 100 µM (inactive) | > 100 µM (inactive) | > 100 µM (inactive) | > 100 µM (inactive) | > 100 µM (inactive) | > 100 µM (inactive) | > 100 µM (inactive) | > 100 µM (inactive) | > 100 µM (inactive) | > 100 µM (inactive) | > 100 µM (inactive)
O=C(NCCNCCNCCNC(=O)c1cc(-c2ccccc2)nc2ccccc12)c1cc(-c2ccccc2)nc2ccccc12 | 1.99 µM (inactive) | 1.82 µM (inactive) | 1.71 µM (inactive) | 2.96 µM (inactive) | 2.52 µM (inactive) | 7.52 µM (inactive) | 1.92 µM (inactive) | 1.67 µM (inactive) | 1.87 µM (inactive) | 1.67 µM (inactive) | 3.07 µM (inactive) | 2.64 µM (inactive) | 2.45 µM (inactive) | 13.4 µM (inactive) | 2.04 µM (inactive) | 2.24 µM (inactive) | 3.4 µM (inactive) | 3.24 µM (inactive) | 6.9 µM (inactive) | 1.88 µM (inactive)
CN1C(c2ccccc2)=CC(=O)C(O)=C(c2ccccc2)S1(=O)=O | > 100 µM (inactive) | > 100 µM (inactive) | > 100 µM (inactive) | > 100 µM (inactive) | > 100 µM (inactive) | > 100 µM (inactive) | > 100 µM (inactive) | > 100 µM (inactive) | > 100 µM (inactive) | > 100 µM (inactive) | > 100 µM (inactive) | > 100 µM (inactive) | > 100 µM (inactive) | > 100 µM (inactive) | > 100 µM (inactive) | > 100 µM (inactive) | > 100 µM (inactive) | > 100 µM (inactive) | > 100 µM (inactive) | > 100 µM (inactive)
CC(C(=O)ON1C(=O)CCC1=O)c1ccc(C(=O)c2ccccc2)s1 (stereo not drawn) | > 100 µM (inactive) | > 100 µM (inactive) | > 100 µM (inactive) | > 100 µM (inactive) | > 100 µM (inactive) | > 100 µM (inactive) | > 100 µM (inactive) | > 100 µM (inactive) | > 100 µM (inactive) | > 100 µM (inactive) | > 100 µM (inactive) | > 100 µM (inactive) | > 100 µM (inactive) | > 100 µM (inactive) | > 100 µM (inactive) | > 100 µM (inactive) | > 100 µM (inactive) | > 100 µM (inactive) | > 100 µM (inactive) | > 100 µM (inactive)
COC(=O)/C=C(\S/C(=N\n1cc(C(=O)OC)c(C(=O)OC)c1-c1ccc(C)cc1)c1ccc(C)cc1)C(=O)OC | 2.45 µM (inactive) | 5.94 µM (inactive) | 18.7 µM (inactive) | 5.25 µM (inactive) | 7.85 µM (inactive) | 7.23 µM (inactive) | 2.8 µM (inactive) | 1.67 µM (inactive) | 6.52 µM (inactive) | 32.8 µM (inactive) | 6.18 µM (inactive) | 4.67 µM (inactive) | 1.44 µM (inactive) | 6.87 µM (inactive) | 6.7 µM (inactive) | 19.1 µM (inactive) | 16.1 µM (inactive) | 6.78 µM (inactive) | 2.52 µM (inactive) | 1.97 µM (inactive)
CCOC(=O)C1=C(C#N)S(=O)(=O)c2c(oc(C)c2C)N1 | > 100 µM (inactive) | > 100 µM (inactive) | > 100 µM (inactive) | > 100 µM (inactive) | > 100 µM (inactive) | > 100 µM (inactive) | > 100 µM (inactive) | > 100 µM (inactive) | > 100 µM (inactive) | > 100 µM (inactive) | > 100 µM (inactive) | > 100 µM (inactive) | > 100 µM (inactive) | > 100 µM (inactive) | > 100 µM (inactive) | > 100 µM (inactive) | > 100 µM (inactive) | > 100 µM (inactive) | > 100 µM (inactive) | > 100 µM (inactive)
CC[n+]1c(/C=C/c2ccc(N(CCCl)CCCl)cc2)ccc2cc(NC(=O)/C=C/c3ccccc3)ccc21 | 0.104 µM (active) | 0.436 µM (active) | 0.39 µM (active) | 0.32 µM (active) | 0.31 µM (active) | 0.628 µM (active) | 0.251 µM (active) | 0.218 µM (active) | 0.291 µM (active) | 0.45 µM (active) | 0.261 µM (active) | 1.75 µM (inactive) | 0.218 µM (active) | 30.9 µM (inactive) | 0.139 µM (active) | 0.423 µM (active) | 0.393 µM (active) | 0.288 µM (active) | 16.6 µM (inactive) | 0.317 µM (active)
CC1(C)OCC2OC(n3cnc4c(N)nc(Cl)nc43)C(OS(C)(=O)=O)C2O1 (stereo not drawn) | > 100 µM (inactive) | > 100 µM (inactive) | > 100 µM (inactive) | > 100 µM (inactive) | > 100 µM (inactive) | > 100 µM (inactive) | 45.3 µM (inactive) | > 100 µM (inactive) | > 100 µM (inactive) | > 100 µM (inactive) | > 100 µM (inactive) | > 100 µM (inactive) | > 100 µM (inactive) | > 100 µM (inactive) | > 100 µM (inactive) | > 100 µM (inactive) | > 100 µM (inactive) | > 100 µM (inactive) | > 100 µM (inactive) | > 100 µM (inactive)
Cc1ccc(S(=O)(=O)NC(=O)NNc2ccc(F)cc2)cc1 | > 100 µM (inactive) | > 100 µM (inactive) | > 100 µM (inactive) | > 100 µM (inactive) | > 100 µM (inactive) | > 31.6 µM (inactive) | > 100 µM (inactive) | > 100 µM (inactive) | > 100 µM (inactive) | > 100 µM (inactive) | > 100 µM (inactive) | > 100 µM (inactive) | > 27 µM (inactive) | > 44 µM (inactive) | > 100 µM (inactive) | > 100 µM (inactive) | > 100 µM (inactive) | > 100 µM (inactive) | > 31.6 µM (inactive) | > 100 µM (inactive)
O=c1c2cc([N+](=O)[O-])ccc2oc2nc3n(c(=O)c12)CCCS3 | > 100 µM (inactive) | > 100 µM (inactive) | > 100 µM (inactive) | > 100 µM (inactive) | > 100 µM (inactive) | > 100 µM (inactive) | > 100 µM (inactive) | > 100 µM (inactive) | > 100 µM (inactive) | > 100 µM (inactive) | > 100 µM (inactive) | > 100 µM (inactive) | > 100 µM (inactive) | > 100 µM (inactive) | > 100 µM (inactive) | > 100 µM (inactive) | > 100 µM (inactive) | > 100 µM (inactive) | > 100 µM (inactive) | > 100 µM (inactive)
Nc1nc(Cl)c(CO)c(NCC2(CO)CC(CCc3ccccc3)C2)n1 (stereo not drawn) | 14.5 µM (inactive) |  | 33.3 µM (inactive) | 12.5 µM (inactive) | > 10 µM (inactive) | 15.4 µM (inactive) | 24.3 µM (inactive) | 15.7 µM (inactive) | 14.2 µM (inactive) | 10.6 µM (inactive) | 31.1 µM (inactive) | 18.8 µM (inactive) | 3.5 µM (inactive) | 11.5 µM (inactive) | 14.3 µM (inactive) | 0.264 µM (active) | 43.1 µM (inactive) | 22.6 µM (inactive) | 17.3 µM (inactive) | 0.979 µM (active)
CC(C)c1cccc(C(C)C)c1NC(=O)/C(CC(=O)CC(c1ccccc1)c1c(O)c2ccccc2oc1=O)=N/O (stereo not drawn) | > 100 µM (inactive) | > 100 µM (inactive) | > 100 µM (inactive) | > 100 µM (inactive) | > 100 µM (inactive) | > 100 µM (inactive) | > 100 µM (inactive) | > 100 µM (inactive) | 95.9 µM (inactive) | > 100 µM (inactive) | > 100 µM (inactive) | > 100 µM (inactive) | > 100 µM (inactive) | > 100 µM (inactive) | > 100 µM (inactive) | > 100 µM (inactive) | > 100 µM (inactive) | > 100 µM (inactive) | > 95.9 µM (inactive) | > 100 µM (inactive)
CC(=O)O[C@H]1C(=O)[C@@]2(C)[C@H]([C@H](OC(=O)c3ccccc3)[C@]3(O)C[C@H](OC(=O)[C@H](O)[C@@H](NC(=O)C(C)(C)C)c4ccccc4)C(C)=C1C3(C)C)[C@]1(OC(C)=O)CO[C@@H]1C[C@@H]2O | 0.0444 µM (active) | 0.0982 µM (active) | 0.0702 µM (active) | 5.93 µM (inactive) | 0.0476 µM (active) | 0.342 µM (active) | 0.535 µM (active) | 0.0306 µM (active) | 0.165 µM (active) | 0.29 µM (active) | 0.0807 µM (active) |  | 0.0305 µM (active) | > 10 µM (inactive) | 0.031 µM (active) | 0.0221 µM (active) | 0.168 µM (active) | 0.106 µM (active) | 0.395 µM (active) | 0.0322 µM (active)

Reference: ChEMBL document CHEMBL1201862, “PubChem BioAssay data set” (2004)
